Results taken from patent US12460153B2, “Method for transforming an essential oil” (PRANAROM INTERNATIONAL S.A., priority 2019, dated 2025).

Assays:
[1] = test system: Staphylococcus aureus LMG 15975; test: Individual activity: MIC by microdilution in 96-well tray; assay type: cell-based; settings: S. aureus LMG 15975 (MRSA+); substance alone
Excerpt: (§1) Within the framework of this invention, the individual activity makes reference to the antimicrobial activity exerted by the EO itself. The individual activity may, for example, be evaluated simply by measuring the MIC (minimum inhibitory concentration), which is the lowest concentration sufficient to inhibit, in vitro, the growth of a bacterial strain, after treating different bacterial strains by different EOs transformed or not according to the method of the invention.
(§2) To do this, the stock solutions of EO (EO-C and EO-T) were first diluted in DMSO at the rate of 10 μl EO in 300 μl DMSO, They were agitated and stored at ambient temperature, away from the light, in glass tubes autoclaved with threaded cap. The individual activity of the EOs was measured by the microdilution method in a 96 well tray so as to obtain the MIC, value at which a solution inhibits bacterial growth. The bacterial strains treated were S. aureus LMG 15975 (methicillin-resistant Staphylococcus aureus, hereinafter referred to as MRSA÷), E. coli LMG 8223, E. coli LMG 15862, P. aeruginosa LMG 6395, S. aureus LMG 8064, S. aureus LMG 16217 (methicillin-resistant Staphylococcus aureus, hereinafter referred to as MRSA++), E. faecalis LMG 8222, K. pneumoniae LMG 20218 and E. aerogenes LMG 2094. […]

[2] = test system: S. aureus LMG 8064; test: Individual activity: MIC by microdilution; assay type: cell-based, Staphylococcus aureus; settings: MSSA LMG 8064 strain; PV alone
Excerpt: as §1, §2

[3] = test system: S. aureus LMG 16217; test: Individual activity: MIC of antibiotic alone, microdilution; assay type: cell-based, Staphylococcus aureus; settings: S. aureus LMG 16217 (MRSA++)
Method: as §1, with “Within the framework of this invention, the individual activity makes reference to the antimicrobial activity exerted by the EO itself.” left out
To do this, the stock solutions of EO (EO-C and EO-T) were first diluted in DMSO at the rate of 10 μl EO in 300 μl DMSO, They were agitated and stored at ambient temperature, away from the light, in glass tubes autoclaved with threaded cap. The individual activity of the EOs was measured by the microdilution method in a 96 well tray so as to obtain the MIC, value at which a solution inhibits bacterial growth. The bacterial strains treated were S. aureus LMG 15975 (methicillin-resistant Staphylococcus aureus, hereinafter referred to as MRSA÷), E. coli LMG 8223, E. coli LMG 15862, P. aeruginosa LMG 6395, S. aureus LMG 8064, S. aureus LMG 16217 (methicillin-resistant Staphylococcus aureus, hereinafter referred to as MRSA++), E. faecalis LMG 8222, K. pneumoniae LMG 20218 and E. aerogenes LMG 2094. Inocula of the bacterial strains were prepared by placing colonies of 18-24 hours of strains suspended in a sterile physiological solution (NaCl 0.85%). These inocula were then adjusted and diluted so as to obtain a final concentration of 5×10^5 CFU/ml. Concerning the test solutions, 300 μl of stock solutions of EO (diluted in DMSO) were added to 4.7 ml culture medium (for example to Mueller Hinton Broth), so as to obtain a solution of EO of 2 mg/ml which was then diluted in series by half in multi-well trays. The final percentage of DMSO in the wells is less than 5%. After inoculation, the multi-well trays were incubated for 18-24 hours at 37° C. and the presence of bacteria was viewed by adding methyl tetrazolium (MU).

Structure (SMILES)	Individual activity MIC: PV/EO [1] [µg/mL]	MIC of PV [2] [µg/mL]	MIC of the antibiotic on this strain [3] [µg/mL]
CC1(C)S[C@@H]2[C@H](NC(=O)COc3ccccc3)C(=O)N2[C@H]1C(=O)O [PV, penicillin V]	4	0.015	64
CC1(C)S[C@@H]2[C@H](NC(=O)[C@H](N)c3ccc(O)cc3)C(=O)N2[C@H]1C(=O)O [amoxicillin]			64
CC1(C)S[C@@H]2[C@H](NC(=O)Cc3ccccc3)C(=O)N2[C@H]1C(=O)O [penicillin G]			64
